{"source": "patent US11725011B2", "about": "“Bicyclic urea kinase inhibitors and uses thereof” (The Broad Institute, Inc., priority 2016, dated 2023)", "assay_in_all_cases": "KINOMEscan", "format_in_all_cases": "binding", "conditions_in_all_cases": "1 uM", "key": {"ULK3": {"target": "ULK3 (Homo sapiens (Human), UniProt Q6PHR2)"}, "DDR1": {"target": "DDR1 (Homo sapiens (Human), UniProt Q08345)", "sequence (Q08345 19-913)": "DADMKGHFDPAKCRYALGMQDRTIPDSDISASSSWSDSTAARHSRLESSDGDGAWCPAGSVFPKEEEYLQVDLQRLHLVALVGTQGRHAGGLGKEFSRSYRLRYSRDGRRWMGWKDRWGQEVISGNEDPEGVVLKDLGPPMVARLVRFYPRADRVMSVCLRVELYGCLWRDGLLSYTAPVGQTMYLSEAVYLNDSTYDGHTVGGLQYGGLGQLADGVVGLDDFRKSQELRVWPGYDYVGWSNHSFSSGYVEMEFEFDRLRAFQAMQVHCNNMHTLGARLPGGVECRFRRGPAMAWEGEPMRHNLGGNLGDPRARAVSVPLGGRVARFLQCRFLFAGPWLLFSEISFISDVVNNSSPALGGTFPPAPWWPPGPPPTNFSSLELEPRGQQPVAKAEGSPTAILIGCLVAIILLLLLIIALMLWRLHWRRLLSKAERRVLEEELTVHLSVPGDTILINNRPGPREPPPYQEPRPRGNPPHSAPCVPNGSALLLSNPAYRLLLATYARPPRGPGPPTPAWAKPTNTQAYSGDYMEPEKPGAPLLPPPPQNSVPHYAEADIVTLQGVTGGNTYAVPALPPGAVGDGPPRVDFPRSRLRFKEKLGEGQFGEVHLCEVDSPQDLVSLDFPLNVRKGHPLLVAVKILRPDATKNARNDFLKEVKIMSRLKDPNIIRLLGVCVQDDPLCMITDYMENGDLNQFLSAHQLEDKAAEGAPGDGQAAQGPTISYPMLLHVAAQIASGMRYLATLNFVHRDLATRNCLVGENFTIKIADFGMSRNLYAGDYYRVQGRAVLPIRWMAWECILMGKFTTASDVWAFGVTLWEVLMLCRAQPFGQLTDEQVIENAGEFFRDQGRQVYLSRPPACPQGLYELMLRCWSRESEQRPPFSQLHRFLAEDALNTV"}, "SNRK": {"target": "SNRK (Homo sapiens (Human), UniProt Q9NRH2)"}, "MAP3K1": {"target": "MAP3K1 (Homo sapiens (Human), UniProt Q13233)"}, "MARK4": {"target": "MARK4 (Homo sapiens (Human), UniProt Q96L34)"}, "EGFR (T790M)": {"target": "EGFR (T790M) (Homo sapiens (Human), UniProt P00533, T790M)"}, "ERK8": {"target": "ERK8 (Homo sapiens (Human), UniProt Q8TD08)"}, "JNK3": {"target": "JNK3 (Homo sapiens (Human), UniProt P53779)"}, "NEK6": {"target": "NEK6 (Homo sapiens (Human), UniProt Q9HC98)"}, "CDKL2": {"target": "CDKL2 (Homo sapiens (Human), UniProt Q92772)"}, "BRSK1": {"target": "BRSK1 (Homo sapiens (Human), UniProt Q8TDC3)"}, "MRCKA": {"target": "MRCKA (Homo sapiens (Human), UniProt Q5VT25)"}, "EGFR (E746-A750del)": {"target": "EGFR (E746-A750del) (Homo sapiens (Human), UniProt P00533, DEL746-750)"}, "MST2": {"target": "MST2 (Homo sapiens (Human), UniProt Q13188)"}, "EPHA8": {"target": "EPHA8 (Homo sapiens (Human), UniProt P29322)"}, "MEK4": {"target": "MEK4 (Homo sapiens (Human), UniProt P45985)"}, "BRK": {"target": "BRK (Homo sapiens (Human), UniProt Q13882)"}, "CDK9": {"target": "CDK9 (Homo sapiens (Human), UniProt P50750)"}, "PAK4": {"target": "PAK4 (Homo sapiens (Human), UniProt O96013)"}, "SgK110": {"target": "SgK110 (Homo sapiens (Human), UniProt P0C264)"}, "MYO3B": {"target": "MYO3B (Homo sapiens (Human), UniProt Q8WXR4)"}, "DDR2": {"target": "DDR2 (Homo sapiens (Human), UniProt Q16832)"}, "RIPK2": {"target": "RIPK2 (Homo sapiens (Human), UniProt O43353)"}, "MET": {"target": "MET (Homo sapiens (Human), UniProt P08581)", "sequence (P08581 25-1390)": "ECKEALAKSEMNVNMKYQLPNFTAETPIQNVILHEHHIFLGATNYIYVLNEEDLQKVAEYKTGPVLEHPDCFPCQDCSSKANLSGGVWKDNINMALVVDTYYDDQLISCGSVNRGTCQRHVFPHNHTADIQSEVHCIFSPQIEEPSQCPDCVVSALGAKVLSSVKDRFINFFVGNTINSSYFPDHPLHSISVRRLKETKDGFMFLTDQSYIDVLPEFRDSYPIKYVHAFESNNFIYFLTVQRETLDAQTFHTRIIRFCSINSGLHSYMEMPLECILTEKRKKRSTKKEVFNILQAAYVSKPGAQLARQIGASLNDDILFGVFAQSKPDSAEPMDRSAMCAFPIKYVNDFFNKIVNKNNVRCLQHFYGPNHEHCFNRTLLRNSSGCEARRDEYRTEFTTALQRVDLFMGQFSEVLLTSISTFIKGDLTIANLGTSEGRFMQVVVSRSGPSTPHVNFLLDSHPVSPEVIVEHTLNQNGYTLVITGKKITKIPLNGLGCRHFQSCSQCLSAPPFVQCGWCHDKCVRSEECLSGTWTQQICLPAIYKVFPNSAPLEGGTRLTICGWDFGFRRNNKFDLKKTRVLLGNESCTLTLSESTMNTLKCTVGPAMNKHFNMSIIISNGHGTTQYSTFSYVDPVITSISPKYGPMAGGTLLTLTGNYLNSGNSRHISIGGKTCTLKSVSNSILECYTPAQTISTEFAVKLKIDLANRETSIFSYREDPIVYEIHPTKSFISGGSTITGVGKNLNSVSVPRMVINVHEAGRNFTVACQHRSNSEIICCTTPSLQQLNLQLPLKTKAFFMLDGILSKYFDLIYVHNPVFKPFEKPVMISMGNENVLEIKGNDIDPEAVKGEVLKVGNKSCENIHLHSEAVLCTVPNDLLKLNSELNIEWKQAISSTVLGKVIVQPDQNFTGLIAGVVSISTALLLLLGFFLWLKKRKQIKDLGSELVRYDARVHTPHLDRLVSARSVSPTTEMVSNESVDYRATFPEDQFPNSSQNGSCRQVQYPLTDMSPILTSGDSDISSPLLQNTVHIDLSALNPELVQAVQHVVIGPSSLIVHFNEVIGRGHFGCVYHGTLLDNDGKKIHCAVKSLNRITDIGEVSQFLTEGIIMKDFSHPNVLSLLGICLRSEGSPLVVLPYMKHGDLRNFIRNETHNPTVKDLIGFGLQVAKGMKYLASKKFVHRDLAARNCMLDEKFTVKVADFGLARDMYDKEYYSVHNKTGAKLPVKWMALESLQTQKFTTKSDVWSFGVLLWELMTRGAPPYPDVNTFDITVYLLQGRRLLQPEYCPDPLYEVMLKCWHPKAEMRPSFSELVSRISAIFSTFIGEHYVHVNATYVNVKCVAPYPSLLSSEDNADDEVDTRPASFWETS"}, "[1]": {"target": "EGFR (L747-E749del, A750P) (Homo sapiens (Human), UniProt P00533, A750P/DEL747-749)", "sequence (P00533 other isoform, or with tags, fused parts or gaps A750P/del L747-E749)": "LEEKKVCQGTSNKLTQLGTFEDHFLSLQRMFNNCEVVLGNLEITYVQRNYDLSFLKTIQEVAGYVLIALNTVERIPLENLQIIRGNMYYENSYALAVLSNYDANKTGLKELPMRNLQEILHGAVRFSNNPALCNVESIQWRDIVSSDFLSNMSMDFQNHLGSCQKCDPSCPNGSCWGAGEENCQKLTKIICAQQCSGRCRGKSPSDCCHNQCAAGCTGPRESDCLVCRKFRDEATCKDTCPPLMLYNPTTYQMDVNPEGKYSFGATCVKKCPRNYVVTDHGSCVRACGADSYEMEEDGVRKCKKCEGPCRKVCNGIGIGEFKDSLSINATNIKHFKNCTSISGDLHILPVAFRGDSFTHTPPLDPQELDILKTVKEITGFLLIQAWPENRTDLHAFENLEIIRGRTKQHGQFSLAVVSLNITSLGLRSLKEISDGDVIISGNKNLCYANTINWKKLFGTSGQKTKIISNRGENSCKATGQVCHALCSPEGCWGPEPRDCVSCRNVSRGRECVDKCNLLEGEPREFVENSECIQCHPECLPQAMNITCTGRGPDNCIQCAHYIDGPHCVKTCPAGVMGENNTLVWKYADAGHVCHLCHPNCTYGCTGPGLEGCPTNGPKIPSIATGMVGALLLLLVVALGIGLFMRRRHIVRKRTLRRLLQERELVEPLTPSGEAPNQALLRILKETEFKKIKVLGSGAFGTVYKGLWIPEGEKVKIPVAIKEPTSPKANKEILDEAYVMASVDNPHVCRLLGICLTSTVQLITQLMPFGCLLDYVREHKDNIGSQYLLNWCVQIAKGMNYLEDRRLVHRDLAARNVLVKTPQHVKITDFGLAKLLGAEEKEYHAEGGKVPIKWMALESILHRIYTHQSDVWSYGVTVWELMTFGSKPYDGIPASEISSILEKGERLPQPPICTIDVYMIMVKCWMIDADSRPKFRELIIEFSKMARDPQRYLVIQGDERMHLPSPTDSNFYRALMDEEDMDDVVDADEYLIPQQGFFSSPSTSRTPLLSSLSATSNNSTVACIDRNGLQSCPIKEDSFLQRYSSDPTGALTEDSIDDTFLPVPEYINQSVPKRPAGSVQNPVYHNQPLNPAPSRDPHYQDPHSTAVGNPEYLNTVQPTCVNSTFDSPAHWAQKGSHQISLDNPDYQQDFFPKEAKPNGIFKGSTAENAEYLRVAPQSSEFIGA"}, "MARK2": {"target": "MARK2 (Homo sapiens (Human), UniProt Q7KZI7)"}, "CDK3": {"target": "CDK3 (Homo sapiens (Human), UniProt Q00526)", "sequence (Q00526 whole entry)": "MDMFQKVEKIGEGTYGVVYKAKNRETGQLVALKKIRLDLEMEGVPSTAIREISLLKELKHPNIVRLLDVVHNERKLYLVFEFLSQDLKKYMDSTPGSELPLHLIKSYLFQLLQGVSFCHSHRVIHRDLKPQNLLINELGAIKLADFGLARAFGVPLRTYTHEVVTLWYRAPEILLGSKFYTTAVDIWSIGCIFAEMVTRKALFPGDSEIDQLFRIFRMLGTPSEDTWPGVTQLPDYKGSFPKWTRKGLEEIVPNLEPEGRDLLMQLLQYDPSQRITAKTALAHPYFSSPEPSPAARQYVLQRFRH"}, "ERK1": {"target": "ERK1 (Homo sapiens (Human), UniProt P27361)"}, "JNK2": {"target": "JNK2 (Homo sapiens (Human), UniProt P45984)"}, "EPHB3": {"target": "EPHB3 (Homo sapiens (Human), UniProt P54753)"}, "PDPK1": {"target": "PDPK1 (Homo sapiens (Human), UniProt O15530)"}, "PRKD3": {"target": "PRKD3 (Homo sapiens (Human), UniProt O94806)"}, "FLT4": {"target": "FLT4 (Homo sapiens (Human), UniProt P35916)"}, "AXL": {"target": "AXL (Homo sapiens (Human), UniProt P30530)", "sequence (P30530 26-894)": "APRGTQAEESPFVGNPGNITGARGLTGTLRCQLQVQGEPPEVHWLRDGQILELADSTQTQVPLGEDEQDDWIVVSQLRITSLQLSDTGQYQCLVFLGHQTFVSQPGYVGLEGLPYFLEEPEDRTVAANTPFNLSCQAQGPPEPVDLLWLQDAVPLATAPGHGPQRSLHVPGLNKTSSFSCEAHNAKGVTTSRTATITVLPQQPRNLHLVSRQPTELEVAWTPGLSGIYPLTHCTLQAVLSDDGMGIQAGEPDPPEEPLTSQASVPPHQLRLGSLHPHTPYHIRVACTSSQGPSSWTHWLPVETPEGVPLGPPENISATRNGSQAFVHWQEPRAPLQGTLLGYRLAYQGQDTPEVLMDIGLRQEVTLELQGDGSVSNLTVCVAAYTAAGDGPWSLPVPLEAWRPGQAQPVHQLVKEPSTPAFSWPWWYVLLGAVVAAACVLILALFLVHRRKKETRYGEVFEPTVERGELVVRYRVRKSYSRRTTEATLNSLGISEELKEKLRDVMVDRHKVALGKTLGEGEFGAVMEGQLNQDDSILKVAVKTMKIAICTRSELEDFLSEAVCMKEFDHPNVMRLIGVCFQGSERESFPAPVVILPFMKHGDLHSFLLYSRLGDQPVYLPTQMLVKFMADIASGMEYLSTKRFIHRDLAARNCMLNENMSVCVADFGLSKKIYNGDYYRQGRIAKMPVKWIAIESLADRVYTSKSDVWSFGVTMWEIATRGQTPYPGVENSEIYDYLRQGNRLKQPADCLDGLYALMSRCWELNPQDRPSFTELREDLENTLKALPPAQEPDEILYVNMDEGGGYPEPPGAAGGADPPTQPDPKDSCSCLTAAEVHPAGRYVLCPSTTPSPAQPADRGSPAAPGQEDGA"}, "PCTK1": {"target": "PCTK1 (Homo sapiens (Human), UniProt Q00536)"}, "[2]": {"target": "RSK1 (Kin.Dom.2-C-terminal) (Homo sapiens (Human), UniProt Q15418)", "sequence (Q15418 418-675)": "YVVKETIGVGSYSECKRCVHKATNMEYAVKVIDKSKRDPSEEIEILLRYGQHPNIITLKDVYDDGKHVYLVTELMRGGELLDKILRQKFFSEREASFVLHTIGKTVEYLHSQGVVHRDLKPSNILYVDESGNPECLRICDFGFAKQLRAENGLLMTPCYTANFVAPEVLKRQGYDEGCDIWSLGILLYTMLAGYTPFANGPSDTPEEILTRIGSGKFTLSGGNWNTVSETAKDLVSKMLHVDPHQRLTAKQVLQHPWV"}, "NEK4": {"target": "NEK4 (Homo sapiens (Human), UniProt P51957)"}, "[3]": {"target": "ABL1 (F317I)-nonphosphorylated (Homo sapiens (Human), UniProt P00519, F317I)"}, "YANK2": {"target": "YANK2 (Homo sapiens (Human), UniProt Q9NY57)"}, "AURKA": {"target": "AURKA (Homo sapiens (Human), UniProt O14965)"}, "EGFR (G719S)": {"target": "EGFR (G719S) (Homo sapiens (Human), UniProt P00533, G719S)"}}, "data": [{"smiles": "COc1ccc(N2C(=O)N(c3c(C)cccc3C)Cc3cnc(Nc4ccc(N5CCN(C)CC5)cc4)nc32)c(OC)c1", "note": "[HG-11-136-01]", "values": [{"measurement": "KINOMEscan ULK3", "setting": "ULK3", "result": 2}, {"measurement": "KINOMEscan DDR1", "setting": "DDR1", "result": 0.3}, {"measurement": "KINOMEscan SNRK", "setting": "SNRK", "result": 91}, {"measurement": "KINOMEscan MAP3K1", "setting": "MAP3K1", "result": 73}, {"measurement": "KINOMEscan MARK4", "setting": "MARK4", "result": 32}, {"measurement": "KINOMEscan EGFR (T790M)", "setting": "EGFR (T790M)", "result": 0.7}, {"measurement": "KINOMEscan ERK8", "setting": "ERK8", "result": 88}, {"measurement": "KINOMEscan JNK3", "setting": "JNK3", "result": 32}, {"measurement": "KINOMEscan NEK6", "setting": "NEK6", "result": 100}, {"measurement": "KINOMEscan CDKL2", "setting": "CDKL2", "result": 14}, {"measurement": "KINOMEscan BRSK1", "setting": "BRSK1", "result": 100}, {"measurement": "KINOMEscan MRCKA", "setting": "MRCKA", "result": 99}, {"measurement": "KINOMEscan EGFR (E746-A750del)", "setting": "EGFR (E746-A750del)", "result": 1.8}, {"measurement": "KINOMEscan MST2", "setting": "MST2", "result": 0.75}, {"measurement": "KINOMEscan EPHA8", "setting": "EPHA8", "result": 0.9}, {"measurement": "KINOMEscan MEK4", "setting": "MEK4", "result": 48}, {"measurement": "KINOMEscan BRK", "setting": "BRK", "result": 0.45}, {"measurement": "KINOMEscan CDK9", "setting": "CDK9", "result": 91}, {"measurement": "KINOMEscan PAK4", "setting": "PAK4", "result": 34}, {"measurement": "KINOMEscan SgK110", "setting": "SgK110", "result": 8.6}, {"measurement": "KINOMEscan MYO3B", "setting": "MYO3B", "result": 29}, {"measurement": "KINOMEscan DDR2", "setting": "DDR2", "result": 1.6}, {"measurement": "KINOMEscan RIPK2", "setting": "RIPK2", "result": 0.1}, {"measurement": "KINOMEscan MET", "setting": "MET", "result": 66}, {"measurement": "KINOMEscan EGFR (L747-E749del, A750P)", "setting": "[1]", "result": 0.35}, {"measurement": "KINOMEscan MARK2", "setting": "MARK2", "result": 3.7}, {"measurement": "KINOMEscan CDK3", "setting": "CDK3", "result": 100}, {"measurement": "KINOMEscan ERK1", "setting": "ERK1", "result": 100}, {"measurement": "KINOMEscan JNK2", "setting": "JNK2", "result": 20}, {"measurement": "KINOMEscan EPHB3", "setting": "EPHB3", "result": 0}, {"measurement": "KINOMEscan PDPK1", "setting": "PDPK1", "result": 100}, {"measurement": "KINOMEscan PRKD3", "setting": "PRKD3", "result": 5.4}, {"measurement": "KINOMEscan FLT4", "setting": "FLT4", "result": 6.6}, {"measurement": "KINOMEscan AXL", "setting": "AXL", "result": 25}, {"measurement": "KINOMEscan PCTK1", "setting": "PCTK1", "result": 73}, {"measurement": "KINOMEscan RSK1 (Kin.Dom.2-C-terminal)", "setting": "[2]", "result": 9.7}, {"measurement": "KINOMEscan NEK4", "setting": "NEK4", "result": 100}, {"measurement": "KINOMEscan ABL1 (F317I)-nonphosphorylated", "setting": "[3]", "result": 0}, {"measurement": "KINOMEscan YANK2", "setting": "YANK2", "result": 1.8}, {"measurement": "KINOMEscan AURKA", "setting": "AURKA", "result": 0}, {"measurement": "KINOMEscan EGFR (G719S)", "setting": "EGFR (G719S)", "result": 0.2}]}]}
